The subject of one experiment is HeLa cells. Description: Cell proliferation measurement (CellTiter-Glo, 72 h). To be noted: Homo sapiens, anti-proliferation. The format is cell-based. The method, then: (§1) The antiproliferative activity of the compounds of the general formula (I) was examined in vitro in human cancer cells. […] After 24 h, cells on one plate (0 h plate) were treated with 30 μl/cavity of CTG solution (Promega Cell Titer Glo (catalogue #G755B and G756B)) and incubated at room temperature for 10 min, and luminescence was measured by means of a VICTOR V (Perkin Elmer), in order to determine cell viability on commencement of treatment. The cells on the test plate were treated with the compounds of the general formula (I) as and incubated at 37° C. for 72 h. The compounds were added to the cells by means of an HP D300 digital dispenser in a 10-step 2,5-fold dilution series generally starting at a maximum final drug concentration of 100 nM, or 30 μM in the case of COV318. As control, the cells were treated with vehicle (DMSO at 0.3% final concentration). After 72 h, the cells were treated with 30 μl/cavity of CTG solution (Promega Cell Titer Glo (catalogue #G755B and G756B)) and incubated at room temperature for 10 min, and luminescence was measured by means of a VICTOR V (Perkin Elmer), in order to determine cell viability at the end of treatment. The percentage effect on cell growth and the IC50 derived therefrom were determined for each test substance using the values from the 0 h plate (=maximum inhibition) and the DMSO control (=minimum inhibition). The IC50 values were calculated using a 4-parameter fit.

The next experiment relates to SK-MEL-3 cells. The description is as above. To be noted: Homo sapiens, SK-MEL3; anti-proliferation, SK-MEL-3, 72 h. It is filed as cell-based. The method, then: as §1
The target in a further experiment is human full length PDE3B (Homo sapiens (Human), UniProt Q13370). Description: PDE3B enzyme inhibition (3H-cAMP Scintillation Proximity Assay). It is filed as biochemical. To be noted: Sf9 cell extract, 60 min room temperature. The method, then: (§2) The commercially available 3H-cAMP Scintillation Proximity Assay (SPA, Perkin Elmer) system was used for enzyme inhibition studies. For the determination of the in vitro effect of example compounds on the PDE3B reactions 2 μl of the respective example compound solution in DMSO (serial dilutions) were placed in wells of microtiter plates (Isoplate-96/200W; Perkin Elmer). 50 μl of a dilution of PDE3B cell extract from Sf9 cells overexpressing human full length PDE3B (SB Drug Discovery, UK) in buffer A (50 mM Tris/HCl pH 7.5, 8.3 mM MgCl2, 1.7 mM EDTA, 0.2% BSA) was added. The dilution of the PDE3B cell extract was chosen such that the reaction kinetics was linear and less than 70% of the substrate was consumed (typical dilution 1:6000). The reaction was started by addition of 50 μl (0.025 μCi) of 1:2000 in buffer A w/o BSA diluted substrate [8-3H]adenosine 3′, 5′-cyclic phosphate (1 μCi/μl; Perkin Elmer). After incubation at room temperature for 60 min, the reaction was stopped by addition of 25 μl of a suspension containing 18 mg/ml yttrium scintillation proximity beads (Perkin Elmer) in water. The microtiter plates were sealed and measured in a Microbeta scintillation counter (PerkinElmer Wallac). IC50 values were determined from sigmoidal curves by plotting percentage PDE3B activity vs log compound concentration.

The target in a further experiment is human full length PDE3A (Homo sapiens (Human), UniProt Q14432). Description: PDE3A enzyme inhibition (3H-cAMP Scintillation Proximity Assay). The format is biochemical. To be noted: Sf9 cell extract, 60 min room temperature. The method, then:
as §2, with “PDE3A” for “PDE3B”, “1:5000).” for “1:6000).”

Drawing on patent US20250170136A1, “1,2,4-TRIAZIN-3(2H)-ONE COMPOUNDS FOR THE TREATMENT OF HYPERPROLIFERATIVE DISEASES” (BAYER AKTIENGESELLSCHAFT, priority 2019, published 2025), this text covers IC50 for five molecules.

Chain of human full length PDE3B (Q13370 whole entry): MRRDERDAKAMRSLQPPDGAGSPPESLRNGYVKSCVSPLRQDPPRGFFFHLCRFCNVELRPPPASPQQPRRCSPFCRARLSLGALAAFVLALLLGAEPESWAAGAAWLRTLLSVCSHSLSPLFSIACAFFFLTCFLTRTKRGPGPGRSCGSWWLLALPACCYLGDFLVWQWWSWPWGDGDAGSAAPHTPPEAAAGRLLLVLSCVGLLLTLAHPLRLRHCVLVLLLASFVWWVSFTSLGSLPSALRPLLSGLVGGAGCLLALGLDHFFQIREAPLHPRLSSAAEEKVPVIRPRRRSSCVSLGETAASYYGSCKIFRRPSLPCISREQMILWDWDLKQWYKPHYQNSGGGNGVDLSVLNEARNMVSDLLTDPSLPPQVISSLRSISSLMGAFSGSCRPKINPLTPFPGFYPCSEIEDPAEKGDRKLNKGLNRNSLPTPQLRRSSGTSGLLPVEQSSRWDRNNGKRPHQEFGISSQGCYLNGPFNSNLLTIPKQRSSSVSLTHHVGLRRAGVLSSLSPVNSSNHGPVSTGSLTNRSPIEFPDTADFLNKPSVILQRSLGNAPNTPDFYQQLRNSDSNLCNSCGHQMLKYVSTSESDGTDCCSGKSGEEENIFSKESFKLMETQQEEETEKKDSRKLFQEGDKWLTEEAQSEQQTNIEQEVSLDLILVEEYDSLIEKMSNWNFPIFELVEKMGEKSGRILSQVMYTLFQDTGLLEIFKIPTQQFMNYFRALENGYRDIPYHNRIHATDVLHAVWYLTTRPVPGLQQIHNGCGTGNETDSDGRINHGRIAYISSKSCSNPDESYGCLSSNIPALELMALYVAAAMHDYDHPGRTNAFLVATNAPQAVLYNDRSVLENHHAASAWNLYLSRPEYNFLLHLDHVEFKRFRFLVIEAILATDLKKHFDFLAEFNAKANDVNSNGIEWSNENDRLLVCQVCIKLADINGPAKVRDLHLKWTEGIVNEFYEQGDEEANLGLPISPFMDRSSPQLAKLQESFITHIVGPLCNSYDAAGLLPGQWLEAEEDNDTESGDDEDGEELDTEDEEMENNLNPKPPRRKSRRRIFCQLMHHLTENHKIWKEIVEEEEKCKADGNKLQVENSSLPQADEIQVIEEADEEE
Chain of human full length PDE3A (Q14432 whole entry): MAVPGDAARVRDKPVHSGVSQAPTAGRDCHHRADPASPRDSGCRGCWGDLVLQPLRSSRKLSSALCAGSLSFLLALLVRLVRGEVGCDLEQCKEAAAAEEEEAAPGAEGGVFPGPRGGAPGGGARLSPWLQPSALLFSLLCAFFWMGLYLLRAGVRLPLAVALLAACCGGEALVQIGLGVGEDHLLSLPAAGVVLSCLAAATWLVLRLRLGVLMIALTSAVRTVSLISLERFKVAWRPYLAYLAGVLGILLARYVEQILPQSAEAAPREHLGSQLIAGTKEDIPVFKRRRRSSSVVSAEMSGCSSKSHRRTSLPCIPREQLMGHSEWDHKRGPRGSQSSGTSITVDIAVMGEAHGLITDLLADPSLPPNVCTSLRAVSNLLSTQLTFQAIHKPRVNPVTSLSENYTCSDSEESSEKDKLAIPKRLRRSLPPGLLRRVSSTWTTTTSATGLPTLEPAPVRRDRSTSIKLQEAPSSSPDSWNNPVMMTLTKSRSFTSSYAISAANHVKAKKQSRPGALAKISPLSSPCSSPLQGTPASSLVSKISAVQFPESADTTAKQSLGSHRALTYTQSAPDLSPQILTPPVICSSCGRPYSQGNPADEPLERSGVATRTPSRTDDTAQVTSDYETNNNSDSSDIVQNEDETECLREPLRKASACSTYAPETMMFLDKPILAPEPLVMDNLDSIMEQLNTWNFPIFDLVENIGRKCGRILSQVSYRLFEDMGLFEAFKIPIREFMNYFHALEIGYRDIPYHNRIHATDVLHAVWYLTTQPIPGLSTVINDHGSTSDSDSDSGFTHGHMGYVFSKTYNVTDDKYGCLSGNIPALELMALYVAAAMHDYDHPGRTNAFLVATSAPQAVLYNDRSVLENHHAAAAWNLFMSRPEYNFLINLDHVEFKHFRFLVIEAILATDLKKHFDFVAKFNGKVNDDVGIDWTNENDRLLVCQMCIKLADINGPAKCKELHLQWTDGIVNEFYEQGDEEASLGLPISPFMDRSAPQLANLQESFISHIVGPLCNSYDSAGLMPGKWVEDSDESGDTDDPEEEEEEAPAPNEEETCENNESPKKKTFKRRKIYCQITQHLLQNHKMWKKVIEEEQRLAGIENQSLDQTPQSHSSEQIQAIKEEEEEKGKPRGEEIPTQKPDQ

Consider `C[C@@H]1NC(=O)NN=C1c1ccc(NCc2ccn[nH]2)c(C(F)(F)F)c1` [Example 2, (5S)-5-methyl-6-[4-{[(1H-pyrazol-5-yl)methyl]amino}-3-(trifluoromethyl)phenyl]-4,5-dihydro-1,2,4-triazin-3(2H)-one], for which the half-maximal inhibitory concentration (IC50) was 0.7 nM in the experiment on HeLa cells, 0.3 nM with SK-MEL-3 cells, 6 nM on human full length PDE3B and 5 nM against human full length PDE3A.

Consider `C[C@@H]1NC(=O)NN=C1c1ccc(N2CC(C)(O)C2)c(C(F)(F)F)c1` [Example 3, (5S)-6-[4-(3-hydroxy-3-methylazetidin-1-yl)-3-(trifluoromethyl)phenyl]-5-methyl-4,5-dihydro-1,2,4-triazin-3(2H)-one], for which the IC50 with HeLa cells turned out to be 0.1 nM; in the experiment on SK-MEL-3 cells, 0.3 nM; against human full length PDE3B, 1 nM; against human full length PDE3A, 2 nM.

Consider `C[C@@H]1NC(=O)NN=C1c1ccc(NC2CCCC2)c(C(F)(F)F)c1` [Example 4, (5S)-6-[4-(cyclopentylamino)-3-(trifluoromethyl)phenyl]-5-methyl-4,5-dihydro-1,2,4-triazin-3(2H)-one], for which the IC50 was 0.1 nM with HeLa cells, 0.4 nM with SK-MEL-3 cells, 1 nM against human full length PDE3B and 2 nM on human full length PDE3A.

On to `C[C@@H]1NC(=O)NN=C1c1ccc(NC[C@@H](O)C(F)(F)F)c(C(F)(F)F)c1` [Example 5, (5S)-5-methyl-6-[4-{[(2R)-3,3,3-trifluoro-2-hydroxypropyl]amino}-3-(trifluoromethyl)phenyl]-4,5-dihydro-1,2,4-triazin-3(2H)-one], for which the IC50 in the experiment on HeLa cells was 0.2 nM; in the experiment with SK-MEL-3 cells, 0.6 nM; at human full length PDE3B it was 5 nM; at human full length PDE3A, 4 nM.

In the case of `C[C@@H]1NC(=O)NN=C1c1ccc(NCc2cnccn2)c(C(F)(F)F)c1` [Example 6, (5S)-5-methyl-6-[4-{[(pyrazin-2-yl)methyl]amino}-3-(trifluoromethyl)phenyl]-4,5-dihydro-1,2,4-triazin-3(2H)-one], the IC50 in the experiment with HeLa cells was determined as 0.3 nM; with SK-MEL-3 cells it was 0.7 nM; on human full length PDE3B, 5 nM; against human full length PDE3A it was 4 nM.
